Reference: PubChem BioAssay AID1223 (NMMLSC, 2008)
Calls of active or inactive are those of the source.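 The calls were made as follows: active = total score of at least 50 of 100, built from tracer displacement at 10 µM, potency and curve span; inactive = total score under 50.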

Biological target: Estrogen receptor (Homo sapiens) (UniProt P03372)
Assay: ERalpha binding competitors, concentration series, dose response, cell-based, Cos7 ERalpha-GFP, flow cytometry (AID 1223)
Details: E2-Alexa633 competitive binding

Estrogen receptor (Homo sapiens), sequence (P03372 whole entry, looked up): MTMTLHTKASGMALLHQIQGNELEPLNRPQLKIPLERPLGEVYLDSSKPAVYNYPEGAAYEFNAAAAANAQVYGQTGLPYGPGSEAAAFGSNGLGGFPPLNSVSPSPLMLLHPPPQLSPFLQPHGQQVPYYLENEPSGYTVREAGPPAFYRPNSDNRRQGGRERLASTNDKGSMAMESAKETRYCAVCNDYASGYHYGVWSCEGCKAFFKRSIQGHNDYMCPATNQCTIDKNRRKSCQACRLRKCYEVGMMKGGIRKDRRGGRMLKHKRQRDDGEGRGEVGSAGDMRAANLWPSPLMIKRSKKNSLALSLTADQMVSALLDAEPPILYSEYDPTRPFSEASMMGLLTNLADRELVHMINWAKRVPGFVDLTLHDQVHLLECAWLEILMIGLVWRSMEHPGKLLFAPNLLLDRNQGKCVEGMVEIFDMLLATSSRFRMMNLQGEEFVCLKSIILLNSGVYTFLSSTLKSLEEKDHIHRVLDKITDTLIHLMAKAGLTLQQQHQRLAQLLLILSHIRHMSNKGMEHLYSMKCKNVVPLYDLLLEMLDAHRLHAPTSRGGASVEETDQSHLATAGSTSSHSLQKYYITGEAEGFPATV

Q: With `Cc1nn(-c2ccccc2)c(/N=C/c2ccc(O)cc2)c1-c1ccccc1` as the compound, how does the “fluorescent ligand binding remaining” value (at 10 µM (top of the series)) read?
A: inactive

Q: `CCC(=O)Oc1ccc(/C(CC)=C(\CC)c2ccc(OC(=O)CC)cc2)cc1` was tested. Which fluorescent ligand binding remaining (at 10 µM (top of the series)) did it give?
A: 22.8%

Q: Which “fluorescent ligand binding remaining” value (at 10 µM (top of the series)) does the source give for `CCCCCCNC(=O)c1cc(-c2ccco2)nc2ccccc12` here?
A: inactive

Q: How did the fluorescent ligand binding remaining (at 10 µM (top of the series)) turn out when `CCC(=O)Oc1ccc(C(CC)C(CC)c2ccc(OC(=O)CC)cc2)cc1` (stereo unspecified) was run?
A: 19.9%

Q: How did the fluorescent ligand binding remaining (at 10 µM (top of the series)) turn out when `CCn1nnc(NC(=O)CSc2ccc(Cl)cc2)n1` was run?
A: 68.5%

Q: `Cc1cc([N+](=O)[O-])c2c(c1C)C1C=CCC1C(c1ccccn1)N2` (stereo unspecified) was tested. Which fluorescent ligand binding remaining (at 10 µM (top of the series)) did it give?
A: 27.9%

Q: With `C[C@]12CC[C@@H]3c4ccc(O)cc4C(=O)C[C@H]3[C@@H]1CC[C@@H]2O` as the compound, how does the “fluorescent ligand binding remaining” value (at 10 µM (top of the series)) read?
A: inactive

Q: Which “fluorescent ligand binding remaining” value (at 100 µM (top of the series)) does the source give for `O=C(O)c1ccc([N+](=O)[O-])c2c1NC(c1ccccc1)C1CC=CC21` (stereo unspecified) here?
A: inactive

Q: Which “fluorescent ligand binding remaining” value (at 10 µM (top of the series)) does the source give for `COc1cccc(C2Nc3c(F)cc(Br)cc3C3C=CCC32)c1OC` (stereo unspecified) here?
A: inactive

Q: How did the “fluorescent ligand binding remaining” value (at 10 µM (top of the series)) turn out when `CCc1nc2sc3ccccc3c(=O)c2c(=O)n1Cc1ccco1` was run?
A: inactive

Q: For `O=C(O)c1ccc2c(c1)C1C(Cl)C(Sc3ccccc3[N+](=O)[O-])CC1C(c1cccc([N+](=O)[O-])c1)N2` (stereo unspecified), which “fluorescent ligand binding remaining” value (at 10 µM (top of the series)) is on record?
A: inactive

Q: How did the “fluorescent ligand binding remaining” value (at 10 µM (top of the series)) turn out when `CC(=O)Nc1ccc(OC(=O)CC2SC(=O)NC2=O)cc1` (stereo unspecified) was run?
A: inactive

Q: For `O=C(c1cc2ncc(Br)cn2n1)N1CCN(C(=O)c2ccco2)CC1`, which “fluorescent ligand binding remaining” value (at 10 µM (top of the series)) is on record?
A: inactive

Q: Which “fluorescent ligand binding remaining” value (at 10 µM (top of the series)) does the source give for `CCCCOC(=O)c1c(C)oc2ccc(NS(=O)(=O)c3ccc4c5c(cccc35)C(=O)N4)cc12` here?
A: inactive

Q: `C/C=C(/C(=C/C)c1ccc(O)cc1)c1ccc(O)cc1` was tested. Which “fluorescent ligand binding remaining” value (at 10 µM (top of the series)) did it give?
A: inactive

Q: For `O=S(=O)(NCCc1csc(-c2cccnc2)n1)c1ccc(Cl)s1`, which “fluorescent ligand binding remaining” value (at 10 µM (top of the series)) is on record?
A: inactive

Q: With `Oc1ccc(-c2nc(-c3ccc(O)c(O)c3)cs2)cc1` as the compound, how does the “fluorescent ligand binding remaining” value (at 10 µM (top of the series)) read?
A: inactive

Q: `O=C1/C(=C\c2ccco2)SC(=S)N1c1ccc(O)cc1` was tested. Which “fluorescent ligand binding remaining” value (at 10 µM (top of the series)) did it give?
A: inactive

Q: How did the “fluorescent ligand binding remaining” value (at 10 µM (top of the series)) turn out when `CCc1ccc(-c2nn(-c3ccccc3)cc2CSC(=N)N)cc1` was run?
A: inactive

Q: For `Nc1ncnc2c1ncn2C1CCC(CO)C(O)C1` (stereo unspecified), which “fluorescent ligand binding remaining” value (at 10 µM (top of the series)) is on record?
A: inactive

Q: How did the “fluorescent ligand binding remaining” value (at 10 µM (top of the series)) turn out when `C[C@H]1CCC[C@@H](O)CCC/C=C/c2cc(O)cc(O)c2C(=O)O1` was run?
A: inactive

Q: How did the EC50 turn out when `CCn1c(=NC(=O)c2ccc(N3C(=O)CCC3=O)cc2)sc2c(OC)ccc(OC)c21` was run?
A: > 10 µM (inactive)

Q: Which fluorescent ligand binding remaining (at 10 µM (top of the series)) does the source give for `Cc1oc2cc(O)ccc2c(=O)c1Oc1ccccc1` here?
A: 42%

Q: With `Cc1cc(C)c2c(c1)NC(c1cc3c(cc1Br)OCO3)C1CC=CC21` (stereo unspecified) as the compound, how does the “fluorescent ligand binding remaining” value (at 10 µM (top of the series)) read?
A: inactive

Q: `COc1ccc(NC(=O)C(c2ccccc2)N(C)C(=O)c2ccc(=O)[nH]c2)cc1` (stereo unspecified) was tested. Which fluorescent ligand binding remaining (at 10 µM (top of the series)) did it give?
A: 50.7%

Q: `CC(=O)c1ccc2c(c1)C1C=CCC1C(c1ccc(S(=O)(=O)N3CCOCC3)cc1)N2` (stereo unspecified) was tested. Which “fluorescent ligand binding remaining” value (at 10 µM (top of the series)) did it give?
A: inactive

Q: For `N=C1C(c2nc3ccccc3[nH]2)=C(O)CN1c1ccc(CC(=O)O)cc1`, which “fluorescent ligand binding remaining” value (at 10 µM (top of the series)) is on record?
A: inactive

Q: For `Cc1ccc(-n2c(=O)c(C#N)cc3c(=O)n4cccc(C)c4nc32)cc1`, which “fluorescent ligand binding remaining” value (at 10 µM (top of the series)) is on record?
A: inactive

Q: Which fluorescent ligand binding remaining (at 10 µM (top of the series)) does the source give for `COc1ccc(/C=N/NC(=O)c2nc(-c3ccccc3)cc(-c3ccccc3)n2)cc1O` here?
A: 44.4%

Q: Which “fluorescent ligand binding remaining” value (at 10 µM (top of the series)) does the source give for `Cc1ccc(C(=O)N/N=C/c2ccc([N+](=O)[O-])s2)cc1` here?
A: inactive

Q: Which “fluorescent ligand binding remaining” value (at 10 µM (top of the series)) does the source give for `O=C1NC(c2ccc(Br)cc2)Nc2sc3c(c21)CCC3` (stereo unspecified) here?
A: inactive

Q: How did the “fluorescent ligand binding remaining” value (at 10 µM (top of the series)) turn out when `CCNC(=O)c1ccc2c(c1)C1C3CCC(C3)C1C(c1ccccc1)N2` (stereo unspecified) was run?
A: inactive

Q: How did the fluorescent ligand binding remaining (at 10 µM (top of the series)) turn out when `Nc1ccc(-c2nc3ccc([N+](=O)[O-])cc3[nH]2)cc1` was run?
A: 63.9%

Q: Which “fluorescent ligand binding remaining” value (at 10 µM (top of the series)) does the source give for `O=C(Cc1cccs1)Nc1ccc(S(=O)(=O)Nc2ncccn2)cc1` here?
A: inactive

Q: Which “fluorescent ligand binding remaining” value (at 10 µM (top of the series)) does the source give for `Cc1cc(-c2nn3c(-c4ccccc4)nnc3s2)c2ccccc2n1` here?
A: inactive

Q: `Oc1ccc(-c2nc3ccc4ccccc4c3c3c2CCC3)cc1O` was tested. Which “fluorescent ligand binding remaining” value (at 10 µM (top of the series)) did it give?
A: inactive
